Active and inactive are the calls of the source. No rule for the calls is given here.
System: rodent lifetime carcinogenesis bioassay, tumor incidence TD50
Assay: chronic cancer bioassays in animals – CPDB, compiled studies (AID 1745844)

Compound: Oc1c(Cl)cc(Cl)c(Cl)c1Cc1c(O)c(Cl)cc(Cl)c1Cl
- carcinogen call (mouse, strain C57BL, females, in feed, site: any site (literature study), lesion: several types, types named in the paper, dosed 104 weeks, study length 104 weeks): negative (inactive)
- TD50 (mouse, strain C57BL, females, in feed, site: liver, lesion: hepatoma, dosed 104 weeks, study length 104 weeks): 434 mg/kg/day (inactive)
- TD50 (mouse, strain C57BL, males, in feed, site: any site (literature study), lesion: several types, types named in the paper, dosed 104 weeks, study length 104 weeks): 900 mg/kg/day (inactive)
- carcinogen call (mouse, strain C57BL, males, in feed, site: liver, lesion: one or several types, types not named, dosed 104 weeks, study length 104 weeks): negative (inactive)
- carcinogen call (mouse, strain C57BL, males, in feed, site: lung, lesion: one or several types, types not named, dosed 104 weeks, study length 104 weeks): negative (inactive)
- TD50 (mouse, strain XVII/G, females, in feed, site: any site (literature study), lesion: several types, types named in the paper, dosed 104 weeks, study length 104 weeks): 39.4 mg/kg/day (inactive)
- carcinogen call (mouse, strain XVII/G, females, in feed, site: liver, lesion: one or several types, types not named, dosed 104 weeks, study length 104 weeks): negative (inactive)
- TD50 (mouse, strain XVII/G, females, in feed, site: lung, lesion: one or several types, types not named, dosed 104 weeks, study length 104 weeks): 33.4 mg/kg/day (inactive)
- TD50 (mouse, strain XVII/G, males, in feed, site: any site (literature study), lesion: several types, types named in the paper, dosed 104 weeks, study length 104 weeks): 17.8 mg/kg/day (inactive)
- TD50 (mouse, strain XVII/G, males, in feed, site: liver, lesion: adenoma, dosed 104 weeks, study length 104 weeks): 450 mg/kg/day (inactive)
- TD50 (mouse, strain XVII/G, males, in feed, site: lung, lesion: one or several types, types not named, dosed 104 weeks, study length 104 weeks): 17.8 mg/kg/day (inactive)
- carcinogen call (rat, strain Fischer 344, females, in feed, site: any site (literature study), lesion: several types, types named in the paper, dosed 106 weeks, study length 106 weeks): negative (inactive)
- TD50 (rat, strain Fischer 344, males, in feed, site: any site (literature study), lesion: several types, types named in the paper, dosed 106 weeks, study length 106 weeks): 30.4 mg/kg/day
- TD50 (rat, strain Fischer 344, males, in feed, site: subcutaneous tissue, lesion: fibrosarcoma, dosed 106 weeks, study length 106 weeks): 41.3 mg/kg/day (inactive)
- TD50 (rat, strain Fischer 344, males, in feed, site: tunica vaginalis, lesion: mesothelioma, NOS, dosed 106 weeks, study length 106 weeks): 57.5 mg/kg/day

Compound: O=NN1CCSCC1
- TD50 (rat, strain MRC, females, in drinking water, site: any site (literature study), lesion: several types, types named in the paper, dosed 38 weeks, study length 105 weeks): 7.38 mg/kg/day
- TD50 (rat, strain MRC, females, in drinking water, site: esophagus, lesion: several types, types named in the paper, dosed 38 weeks, study length 105 weeks): 7.69 mg/kg/day
- TD50 (rat, strain MRC, females, in drinking water, site: tongue, lesion: squamous-cell carcinoma, dosed 38 weeks, study length 105 weeks): 22 mg/kg/day
- TD50 (rat, strain MRC, males, in drinking water, site: any site (literature study), lesion: several types, types named in the paper, dosed 38 weeks, study length 95 weeks): 2.29 mg/kg/day
- TD50 (rat, strain MRC, males, in drinking water, site: esophagus, lesion: several types, types named in the paper, dosed 38 weeks, study length 95 weeks): 4.15 mg/kg/day

Compound: O=CNNc1nc(-c2ccco2)cs1
- carcinogen call (rat, strain Sprague-Dawley, females, in feed, site: any site (literature study), lesion: several types, types named in the paper, dosed 46 weeks, study length 64 weeks): negative (inactive)

Compound: [O]=[Cr][O][Cr]=[O]
- carcinogen call (rat, strain BD, both sexes, in feed, site: hypophysis, lesion: adenoma, dosed 85 weeks, study length 187 weeks): negative (inactive)
- carcinogen call (rat, strain BD, both sexes, in feed, site: mammary gland, lesion: carcinoma, dosed 85 weeks, study length 187 weeks): negative (inactive)
- TD50 (rat, strain BD, both sexes, in feed, site: mammary gland, lesion: fibroadenoma, dosed 85 weeks, study length 187 weeks): 237000 mg/kg/day (inactive)

Compound: Cc1cc(Cc2cc(C)cc(C(C)(C)C)c2O)c(O)c(C(C)(C)C)c1
- carcinogen call (rat, strain Wistar, females, in feed, site: liver, lesion: one or several types, types not named, dosed 52 weeks, study length 52 weeks): negative (inactive)
- carcinogen call (rat, strain Wistar, females, in feed, site: liver, lesion: one or several types, types not named, dosed 78 weeks, study length 78 weeks): negative (inactive)
- carcinogen call (rat, strain Wistar, males, in feed, site: liver, lesion: hepatocellular adenoma, dosed 78 weeks, study length 78 weeks): negative (inactive)
- carcinogen call (rat, strain Wistar, males, in feed, site: liver, lesion: one or several types, types not named, dosed 52 weeks, study length 52 weeks): negative (inactive)
- TD50 (rat, strain Wistar, males, in feed, site: testis, lesion: interstitial-cell tumor, dosed 52 weeks, study length 52 weeks): 44.5 mg/kg/day (inactive)
- TD50 (rat, strain Wistar, males, in feed, site: testis, lesion: interstitial-cell tumor, dosed 78 weeks, study length 78 weeks): 36.6 mg/kg/day (inactive)
